Measured values as given in patent US10112941B2, “Tricyclic compounds as anticancer agents” (BRISTOL-MYERS SQUIBB COMPANY, priority 2013, dated 2018).

Biological target: BRD4 (Homo sapiens, UniProt O60885)
Test: Time Resolved Fluorescence Resonance Energy Transfer (TR-FRET) binding assay, BRD4
Conditions: one of the FRET assays described; read-out: FRET BRD4 IC50

Structure (SMILES)	IC50 [nM]
[2H]C([2H])([2H])c1nnn(C)c1-c1cnc2c3ccc(S(C)(=O)=O)cc3n(C(c3ncccc3F)C3CCC(F)(F)CC3)c2c1 (stereo not shown) [Example 239, 2-[(4,4-Difluorocyclohexyl)({7-methanesulfonyl-3-[4-(^2H3)methyl-1-methyl-1H-1,2,3-triazol-5-yl]-5H-pyrido[3,2-b]indol-5-yl})methyl]-3-fluoropyridine]	< 5
Cc1nnn(C)c1-c1cnc2c3ccc(C(C)(C)O)c(F)c3n(C(c3ccccc3)C3CCOCC3)c2c1 (single isomer, unassigned) [Example 71, 2-[3-(Dimethyl-1H-1,2,3-triazol-5-yl)-6-fluoro-5-[oxan-4-yl(phenyl)methyl]-5H-pyrido[3,2-b]indol-7-yl]propan-2-ol]	< 5
Cc1nnn(C)c1-c1cnc2c3ccc(C(C)(C)O)cc3n(C(c3ccc(F)c(F)c3)C3CCOCC3)c2c1 (single isomer, unassigned) [Example 97, 2-{5-[(3,4-Difluorophenyl)(oxan-4-yl)methyl]-3-(dimethyl-1H-1,2,3-triazol-5-yl)-5H-pyrido[3,2-b]indol-7-yl}propan-2-ol]	< 5
Cc1nnn(C)c1-c1cnc2c3ccc(C(C)(O)C4CC4)c(F)c3n([C@H](c3ccccc3F)C3CCOCC3)c2c1 (single isomer, unassigned) [Example 435]	< 5
CC(=O)c1ccc2c3ncc(-c4c(C)nnn4C)cc3n([C@H](c3ccccc3)C3CCOCC3)c2c1 [Example 421, 1-[3-(Dimethyl-1H-1,2,3-triazol-5-yl)-5-[(S)-oxan-4-yl(phenyl)methyl]-5H-pyrido[3,2-b]indol-7-yl]ethan-1-one]	< 5
COc1ccc(S(C)(=O)=O)c2c1c1ncc(-c3c(C)noc3C)cc1n2[C@H](c1ccc(F)cc1)C1CCOCC1 [Example 187, 4-{5-[(S)-(4-Fluorophenyl)(oxan-4-yl)methyl]-6-methanesulfonyl-9-methoxy-5H-pyrido[3,2-b]indol-3-yl}-3,5-dimethyl-1,2-oxazole]	< 5
Cc1noc(C)c1-c1cnc2c3ccc(C(C)(C)O)cc3n(C(c3ccc(F)c(F)c3)C3CCOCC3)c2c1 (single isomer, unassigned) [Example 142, 2-{5-[(3,4-Difluorophenyl)(oxan-4-yl)methyl]-3-(dimethyl-1,2-oxazol-4-yl)-5H-pyrido[3,2-b]indol-7-yl}propan-2-ol]	< 5
[2H]C([2H])([2H])Oc1nnn(C)c1-c1cnc2c3ccc(C(C)(C)O)cc3n([C@H](c3ccccc3)C3CCOCC3)c2c1 [Example 378, 2-{3-[4-(^2H3)Methoxy-1-methyl-1H-1,2,3-triazol-5-yl]-5-[(S)-oxan-4-yl(phenyl)methyl]-5H-pyrido[3,2-b]indol-7-yl}propan-2-ol]	< 5
Cc1noc(C)c1-c1cnc2c3ccc(C(C)(C)O)cc3n(C(c3ccc(F)c(F)c3)C3CCOCC3)c2c1 (single isomer, unassigned) [Example 141, 2-{5-[(3,4-Difluorophenyl)(oxan-4-yl)methyl]-3-(dimethyl-1,2-oxazol-4-yl)-5H-pyrido[3,2-b]indol-7-yl}propan-2-ol]	< 25
Cc1nnn(C)c1-c1cnc2c3c(F)cc(C(C)(C)O)cc3n([C@H](c3ccccc3)C3CCOCC3)c2c1 [Example 369, 2-[3-(Dimethyl-1H-1,2,3-triazol-5-yl)-9-fluoro-5-[(S)-oxan-4-yl(phenyl)methyl]-5H-pyrido[3,2-b]indol-7-yl]propan-2-ol]	< 5
[2H]C([2H])([2H])c1nnn(C)c1-c1cnc2c3c(F)ccc(S(C)(=O)=O)c3n([C@H](c3ccccc3F)C3CCOCC3)c2c1 [Example 231, 5-{9-Fluoro-5-[(S)-(2-fluorophenyl)(oxan-4-yl)methyl]-6-methanesulfonyl-5H-pyrido[3,2-b]indol-3-yl}-4-(^2H3)methyl-1-methyl-1H-1,2,3-triazole]	< 5
Cc1noc(C)c1-c1cnc2c3ccc(C(C)(C)O)cc3n([C@H](CCC(F)(F)F)c3ccccc3Cl)c2c1 [Example 87]	< 1500
Cc1noc(C)c1-c1cnc2c3ccc(C(C)(C)O)cc3n([C@@H](CCC(F)(F)F)c3ccccc3Cl)c2c1 [Example 86]	< 5
